Reference: patent US20240368183A1, “Macrocyclic Compounds Having ENT1 Inhibiting Activity” (iTeos Belgium SA, priority 2021, published 2024)
Like-named read-outs stand apart in the source and are kept apart here.

Columns and labels:
[1] = tested on: stimulated primary human T cells; test: T cell proliferation assay (rescue of proliferation in the presence of ATP); assay type: cell-based
Protocol: The aim of this study was to determine the potency of equilibrative nucleoside transporter 1 (ENT1) inhibitors to rescue proliferation by stimulated primary human T cells incubated in the presence of 100 uM Adenosine triphosphate (ATP), in baseline conditions (condition A) or in the presence of various proteins known to bind small molecules (condition B)
Condition B: X-VIVO15, 2% Human Serum Albumine (HSA) and 0.1% α-1-Acid Glycoprotein (AAG)
Cryopreserved purified human CD3+ T cells were thawed and washed twice with RPMI1640 medium, UltraGlutamine containing 10% hiFBS.
Cells were suspended in PBS containing 10% hiFBS. Cells were stained with CFSE by adding 2 μM solution in PBS, to get a final 1 μM CFSE solution. Cells were incubated while rotating for 5 minutes. Reaction was stopped by adding PBS with 10% FBS and cells were centrifuged for 5 minutes at 1500 rpm.
Cells were resuspended at 1.6×10^6 cells/mL, either in X-VIVO15 medium or in 4% Human Serum Albumin and 0.2% α-1-Acid Glycoprotein. 50 μL of cell suspension (8×10^4 T cells) was added to wells of sterile round-bottom 96-well plates. Cells were activated by adding 50 μL of anti-CD3 anti-CD28 coated microbeads, suspended either in XVIVO-15 medium or in 4% HSA and 0.2% α-1-Acid Glycoprotein, at a ratio of one microbead per two cells.
Serial dilutions of the ENT1 inhibitors were prepared in X-VIVO15 from 10 mM stock solutions in DMSO, and 50 μL was added to the wells.
ATP powder was diluted in X-VIVO15, and 50 μL of this compound was added to the wells to reach a final assay concentration of 100 μM. Final volume of 200 μL.
The experiments were also performed in 384 well plates—all volumes reduced by a factor of 4 (12.5 μL) with a final volume of 50 μL.
Experiments were performed in duplicate. The cells were placed in a 37° C. humidified tissue culture incubator with 5% CO2 for 72 hours for 96 well plates, 96 hours for 384 well plates After 72 or 96 hours, proliferation was measured determined by CFSE dilution via flow cytometry.

[2] = biological target: T1, human ENT1 (Homo sapiens, UniProt Q99808); test: ENT1 binding assay (competition with Sahenta-DY647); settings: JAR cells expressing ENT1; competition with Sahenta-DY647 (100 nM); 4° C.
T1 construct: JAR cells expressing ENT1 were bought from ATCC® (HTB-144TM); host or cells: JAR cells (human choriocarcinoma line, own knowledge)
T1 sequence (Q99808 1-456): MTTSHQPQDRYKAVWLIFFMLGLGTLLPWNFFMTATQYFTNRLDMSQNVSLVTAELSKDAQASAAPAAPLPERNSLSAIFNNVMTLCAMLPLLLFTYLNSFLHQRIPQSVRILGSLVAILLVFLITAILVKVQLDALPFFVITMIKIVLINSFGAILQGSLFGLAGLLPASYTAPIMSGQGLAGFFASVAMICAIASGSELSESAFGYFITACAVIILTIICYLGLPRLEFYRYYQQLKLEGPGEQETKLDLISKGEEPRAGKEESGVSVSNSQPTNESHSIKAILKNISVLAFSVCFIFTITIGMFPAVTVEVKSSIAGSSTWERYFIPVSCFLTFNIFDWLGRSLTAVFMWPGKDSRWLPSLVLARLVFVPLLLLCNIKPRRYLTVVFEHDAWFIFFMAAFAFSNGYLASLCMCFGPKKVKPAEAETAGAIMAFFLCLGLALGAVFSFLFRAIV
Protocol: The present assay aims at showing that the compounds of the present disclosure can bind to human ENT1. The principle of the assay is a competition between the compounds of this present disclosure and Sahenta-DY647, an ENT1 inhibitor that emits fluorescence (Ex=630 nm, Em=670 nm). By measuring the fluorescence at the end of the assay we could assess the binding potency of the compounds of the present disclosure.
JAR cells expressing ENT1 were bought from ATCC® (HTB-144TM). Cells were cultured in RPMI 1640 medium (LONZA®, #BE12-702F/U1) supplemented with 10% FBS (GIBCO®, #10270-106), 10 mM Hepes (LONZA®, #BE17-737E), 1 mM Sodium Pyruvate (LONZA®, #BE13-115E) and 2% Penicillin/Streptomycin (LONZA®, #DE17-603E) at 37° C. and 5% CO2. The assay was conducted on the following buffer: HBSS (LONZA®, #LO-527F) supplemented with 10 mM Hepes (LONZA®, #BE17-737E) and 0.1% BSA (Miltenyi®, #130-091-376) on the day of the assay.
JAR cells were resuspended in the described buffer. Compounds of the present disclosure and Sahenta-DY647 were diluted 200× in the described buffer.
A total of 50 000 cells were pre-incubated for 30 min at 4° C. with the compounds of the present disclosure before adding the corresponded IC90 of Sahenta-DY647 (100 nM) and incubate once more for 30 min at 4° C. The total volume of the reaction was 100 μL (50 μL of cells, 25 μL of the compounds of the present disclosure and 25 μL of Sahenta-DY647) in a 96 well plate, U-bottom (Greiner®, #650-180). The plates were washed 2× by centrifugation (4 min, 400 rcf at 4° C.) in the same buffer. Cells were re-suspended in 70 μL of the buffer and 50 μL was transferred to a Black 384 Optiplate (PerkinElmer®, #6007279). Fluorescence (Ex=630 nm, Em=670 nm) was acquired on a Spectramax i3x (Molecular Devices®).

[3] = Condition B: X-VIVO15, 2% Human Serum Albumine (HSA) and 0.1% α-1-Acid Glycoprotein (AAG), 100 μM ATP, read-out: (2) T Cell proliferation (Condition B) IC50
[4] = Homo sapiens, Condition A: X-VIVO15, 100 μM ATP, read-out: T Cell proliferation (Condition A) IC50

Compound | IC50 [1, 3] [nM] | IC50 [1, 4] [nM] | IC50 [2] [nM]
COc1cc(C(=O)OC2CCCOc3cc(cc(OC)c3OC)COCCC3CCN(CC3)CC2)cc(OC)c1OC (stereo not shown) [Compound 42] | 20 to 500 | < 1 | 1 to 20
COc1cc(C(=O)OC2CCCOc3cc(cc(OC)c3OC)CCCCCN3CCCN(CC2)CC3)cc(OC)c1OC (stereo not shown) [Compound 45] |  |  | 1 to 20
COc1cc2cc(c1OC)OCCCC(OC(=O)c1cn(C)nn1)CCN1CCCN(CCCOC2=O)CC1 (stereo not shown) [Compound 8] |  |  | 1 to 20
COc1cc(C(=O)OC2CCCOc3cc(cc(OC)c3OC)COCCN3CCCN(CC2)CC3)cc(OC)c1OC (stereo not shown) [Compound 44] | 20 to 500 | < 0.1 | 1 to 20
COc1ccc(C(=O)OC2CCCOc3cc(cc(OC)c3OC)C(=O)OCCCN3CCCN(CC2)CC3)cc1OC (stereo not shown) [Compound 16] | 1 to 20 | < 0.1 | 1 to 20
COc1cc(C(=O)O[C@H]2CCOc3cc(cc(OC)c3OC)C(=O)NCCCN3CCCN(CC2)CC3)cc(OC)c1OC (stereo in doubt) [Compound 38] |  |  | 500 to 1000
COc1cc2cc(c1OC)OCCCC(OC(=O)c1ccccc1)CCN1CCCN(CCCOC2)CC1 (stereo not shown) [Compound 2] | > 500 | 1 to 20 | 1 to 20
COc1cc2cc(c1OC)OCCCC(Oc1ncccn1)CCN1CCCN(CCCOC2=O)CC1 (stereo not shown) [Compound 22] |  |  | 20 to 500
COc1cc(C(=O)OC2CCCOc3cc(cc(OC)c3OC)C(=O)NCCC(=O)N3CCCN(CC2)CC3)cc(OC)c1OC (stereo not shown) [Compound 21] | 1 to 20 | < 0.1 | 1 to 20
COc1cc2cc(c1OC)OCCCC(OC(=O)CCC(=O)N1CCOCC1)CCN1CCCN(CCCOC2)CC1 (stereo not shown) [Compound 6] | > 500 | < 1 | 1 to 20
[2H]C([2H])([2H])Oc1cc(C(=O)O[C@@H]2CCCOc3cc(cc(OC)c3OC)C(=O)NCCCN3CCCN(CC2)CC3)cc(OC([2H])([2H])[2H])c1OC([2H])([2H])[2H] [Compound 17] | 1 to 20 | < 0.1 | 1 to 20
COc1ccc(C(=O)OC2CCCOc3cc(cc(OC)c3OC)C(=O)OCCCN3CCCN(CC2)CC3)cc1 (stereo not shown) [Compound 13] |  |  | 1 to 20
COc1cc2cc(c1OC)OCCCC(OC(=O)c1ccn(C)n1)CCN1CCCN(CCCOC2=O)CC1 (stereo not shown) [Compound 11] | > 500 | < 1 | 1 to 20
COc1cc2cc(c1OC)OCCCC(OC(=O)NCC(=O)N1CCOCC1)CCN1CCCN(CCCNC2=O)CC1 (stereo not shown) [Compound 40] | 20 to 500 | 20 to 500 | 20 to 500
COc1cc(C(=O)OC2CCCOc3cc(cc(OC)c3OC)C#CCCS(=O)(=O)N3CCCN(CC2)CC3)cc(OC)c1OC (stereo not shown) [Compound 46] |  |  | 20 to 500
COc1cc(C(=O)OC2CCCOc3cc(cc(OC)c3OC)CCCCS(=O)(=O)N3CCCN(CC2)CC3)cc(OC)c1OC (stereo not shown) [Compound 47] | 1 to 20 | < 1 | 1 to 20
COc1cccc(C(=O)OC2CCCOc3cc(cc(OC)c3OC)C(=O)OCCCN3CCCN(CC2)CC3)c1 (stereo not shown) [Compound 14] |  |  | 1 to 20
COc1cc2cc(c1OC)OCCCC(OC(=O)c1ccnn1C)CCN1CCCN(CCCOC2=O)CC1 (stereo not shown) [Compound 10] | 20 to 500 | < 0.1 | 1 to 20
